Results on three compounds are retold here after patent publication US12479847B2 (DANA-FARBER CANCER INSTITUTE, INC., priority 2019, dated 2025).

What all share (experiment): KINOMEscan (ScanMAX) kinase profiling
Common to all, as to assay type: binding

Test [1] has as its target T1, panel of 468 kinases (Homo sapiens, UniProt O15264).
T1 construct: purchased KINOMEscan (ScanMAX) service
T1 sequence (O15264 1-365): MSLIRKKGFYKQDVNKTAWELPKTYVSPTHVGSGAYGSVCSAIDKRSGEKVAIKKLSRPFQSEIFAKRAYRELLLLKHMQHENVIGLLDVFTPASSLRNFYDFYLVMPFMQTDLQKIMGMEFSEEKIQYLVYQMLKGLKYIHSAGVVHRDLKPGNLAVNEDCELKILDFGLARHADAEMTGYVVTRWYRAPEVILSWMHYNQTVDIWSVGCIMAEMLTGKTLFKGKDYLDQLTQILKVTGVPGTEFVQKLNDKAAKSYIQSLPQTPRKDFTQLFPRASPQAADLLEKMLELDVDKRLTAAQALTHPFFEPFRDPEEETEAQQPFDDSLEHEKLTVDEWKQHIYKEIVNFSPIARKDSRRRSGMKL
The settings on record: p38-delta; 1 μM; read-out: % control.

Test [2] addresses T2, panel of 468 kinases (Homo sapiens, UniProt O95382).
T2 construct: purchased KINOMEscan (ScanMAX) service
T2 sequence (O95382 1-1288): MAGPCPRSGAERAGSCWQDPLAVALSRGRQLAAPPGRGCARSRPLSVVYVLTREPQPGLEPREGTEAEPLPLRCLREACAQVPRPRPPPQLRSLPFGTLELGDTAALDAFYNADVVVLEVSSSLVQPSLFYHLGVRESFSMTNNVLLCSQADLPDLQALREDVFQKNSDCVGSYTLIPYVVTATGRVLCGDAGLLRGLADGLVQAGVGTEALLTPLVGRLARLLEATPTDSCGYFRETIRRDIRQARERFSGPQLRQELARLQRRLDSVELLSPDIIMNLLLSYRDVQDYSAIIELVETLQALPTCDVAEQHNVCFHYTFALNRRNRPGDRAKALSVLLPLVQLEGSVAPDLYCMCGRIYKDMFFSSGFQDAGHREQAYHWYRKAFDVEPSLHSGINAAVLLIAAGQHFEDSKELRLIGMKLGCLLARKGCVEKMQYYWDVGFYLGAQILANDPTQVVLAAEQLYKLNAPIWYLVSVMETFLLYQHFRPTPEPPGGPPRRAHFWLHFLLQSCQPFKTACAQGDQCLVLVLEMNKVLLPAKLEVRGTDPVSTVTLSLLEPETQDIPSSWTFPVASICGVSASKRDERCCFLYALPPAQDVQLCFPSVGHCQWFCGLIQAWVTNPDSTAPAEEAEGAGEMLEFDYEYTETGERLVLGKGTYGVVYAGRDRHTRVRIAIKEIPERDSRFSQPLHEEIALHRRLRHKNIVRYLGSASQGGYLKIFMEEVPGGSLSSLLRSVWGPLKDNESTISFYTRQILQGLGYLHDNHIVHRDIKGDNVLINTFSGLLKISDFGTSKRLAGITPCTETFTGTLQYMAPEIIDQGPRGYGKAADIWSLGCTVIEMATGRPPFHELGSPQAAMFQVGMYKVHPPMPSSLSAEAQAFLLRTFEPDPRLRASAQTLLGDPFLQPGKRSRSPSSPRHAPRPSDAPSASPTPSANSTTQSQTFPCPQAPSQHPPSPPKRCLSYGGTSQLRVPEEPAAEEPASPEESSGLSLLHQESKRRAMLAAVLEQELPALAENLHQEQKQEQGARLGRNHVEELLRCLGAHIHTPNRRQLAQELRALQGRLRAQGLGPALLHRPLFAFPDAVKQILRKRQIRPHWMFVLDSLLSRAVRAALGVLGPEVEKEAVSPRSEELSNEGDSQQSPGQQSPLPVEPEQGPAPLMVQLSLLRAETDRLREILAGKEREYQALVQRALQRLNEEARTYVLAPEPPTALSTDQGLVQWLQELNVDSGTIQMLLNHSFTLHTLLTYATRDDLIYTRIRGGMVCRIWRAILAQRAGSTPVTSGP
The settings on record: ASK2; 1 μM; read-out: % control.

For test [3], the target named is T3, panel of 468 kinases (Homo sapiens, UniProt P07333).
T3 construct: purchased KINOMEscan (ScanMAX) service
The settings on record: 1 μM, read-out: % control.

Test [4] concerns the target T4, panel of 468 kinases (Homo sapiens, UniProt P22607).
T4 construct: purchased KINOMEscan (ScanMAX) service
Conditions: FGFR3; 1 μM; read-out: % control.

The target in test [5] is T5, panel of 468 kinases (Homo sapiens, UniProt Q00526).
T5 construct: purchased KINOMEscan (ScanMAX) service
The settings on record: CDK3; 1 μM; read-out: % control.

Test [6] addresses T6, panel of 468 kinases (Homo sapiens, UniProt Q13882).
T6 construct: purchased KINOMEscan (ScanMAX) service
The settings on record: BRK; 1 μM; read-out: % control.

For test [7], the target named is T7, panel of 468 kinases (Homo sapiens, UniProt Q15759).
T7 construct: purchased KINOMEscan (ScanMAX) service
Conditions: p38-beta; 1 μM; read-out: % control.

Test [8] concerns the target T8, panel of 468 kinases (Homo sapiens, UniProt Q96RR4).
T8 construct: purchased KINOMEscan (ScanMAX) service
The settings on record: CAMKK2; 1 μM; read-out: % control.

Test [9] deals with T9, panel of 468 kinases (Homo sapiens, UniProt Q99755).
T9 construct: purchased KINOMEscan (ScanMAX) service
Conditions: PIP5K1A; 1 μM; read-out: % control.

Test [10] concerns the target T10, panel of 468 kinases (Homo sapiens, UniProt Q9BYT3).
T10 construct: purchased KINOMEscan (ScanMAX) service
Conditions: STK33; 1 μM; read-out: % control.

Read-outs that look alike come from different tables or passages of the source.

T8 sequence (Q96RR4 whole entry): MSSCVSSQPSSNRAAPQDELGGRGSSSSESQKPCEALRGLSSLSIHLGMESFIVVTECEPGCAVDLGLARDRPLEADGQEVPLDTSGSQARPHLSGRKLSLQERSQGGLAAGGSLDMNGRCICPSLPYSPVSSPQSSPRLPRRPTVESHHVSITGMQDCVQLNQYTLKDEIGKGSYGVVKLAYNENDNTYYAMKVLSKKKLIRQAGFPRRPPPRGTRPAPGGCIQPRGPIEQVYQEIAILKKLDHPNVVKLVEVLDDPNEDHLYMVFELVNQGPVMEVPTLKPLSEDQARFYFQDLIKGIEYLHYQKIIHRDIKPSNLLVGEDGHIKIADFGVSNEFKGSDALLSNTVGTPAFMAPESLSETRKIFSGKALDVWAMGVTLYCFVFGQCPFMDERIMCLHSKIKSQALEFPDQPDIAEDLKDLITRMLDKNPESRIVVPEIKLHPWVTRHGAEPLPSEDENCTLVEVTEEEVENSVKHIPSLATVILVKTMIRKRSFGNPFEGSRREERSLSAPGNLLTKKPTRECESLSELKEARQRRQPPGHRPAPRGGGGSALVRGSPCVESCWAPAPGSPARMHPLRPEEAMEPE
T9 sequence (Q99755 whole entry): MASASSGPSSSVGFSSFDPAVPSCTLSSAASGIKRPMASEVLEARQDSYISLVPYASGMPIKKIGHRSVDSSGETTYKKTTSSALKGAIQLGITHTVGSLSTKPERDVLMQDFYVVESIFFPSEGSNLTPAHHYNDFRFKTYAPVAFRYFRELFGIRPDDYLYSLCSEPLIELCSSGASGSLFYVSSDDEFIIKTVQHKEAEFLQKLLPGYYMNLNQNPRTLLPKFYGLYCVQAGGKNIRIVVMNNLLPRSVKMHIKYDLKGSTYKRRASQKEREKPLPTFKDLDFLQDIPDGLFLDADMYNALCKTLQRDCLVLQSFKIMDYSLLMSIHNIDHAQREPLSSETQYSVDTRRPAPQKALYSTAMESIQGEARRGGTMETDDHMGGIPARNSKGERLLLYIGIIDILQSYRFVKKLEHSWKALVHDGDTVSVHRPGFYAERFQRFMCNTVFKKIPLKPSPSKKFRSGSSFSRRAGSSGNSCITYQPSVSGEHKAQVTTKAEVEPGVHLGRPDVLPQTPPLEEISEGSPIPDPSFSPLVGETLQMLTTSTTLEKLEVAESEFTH
T5 sequence (Q00526 whole entry): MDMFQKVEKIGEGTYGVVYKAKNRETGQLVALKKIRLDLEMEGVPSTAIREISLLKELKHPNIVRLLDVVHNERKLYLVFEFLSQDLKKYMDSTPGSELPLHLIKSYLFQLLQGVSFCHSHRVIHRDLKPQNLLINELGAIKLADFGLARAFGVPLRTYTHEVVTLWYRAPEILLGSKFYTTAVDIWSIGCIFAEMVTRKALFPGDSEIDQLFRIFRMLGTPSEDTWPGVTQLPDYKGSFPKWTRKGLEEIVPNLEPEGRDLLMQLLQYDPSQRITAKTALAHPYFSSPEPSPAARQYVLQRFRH
T4 sequence (P22607 23-806): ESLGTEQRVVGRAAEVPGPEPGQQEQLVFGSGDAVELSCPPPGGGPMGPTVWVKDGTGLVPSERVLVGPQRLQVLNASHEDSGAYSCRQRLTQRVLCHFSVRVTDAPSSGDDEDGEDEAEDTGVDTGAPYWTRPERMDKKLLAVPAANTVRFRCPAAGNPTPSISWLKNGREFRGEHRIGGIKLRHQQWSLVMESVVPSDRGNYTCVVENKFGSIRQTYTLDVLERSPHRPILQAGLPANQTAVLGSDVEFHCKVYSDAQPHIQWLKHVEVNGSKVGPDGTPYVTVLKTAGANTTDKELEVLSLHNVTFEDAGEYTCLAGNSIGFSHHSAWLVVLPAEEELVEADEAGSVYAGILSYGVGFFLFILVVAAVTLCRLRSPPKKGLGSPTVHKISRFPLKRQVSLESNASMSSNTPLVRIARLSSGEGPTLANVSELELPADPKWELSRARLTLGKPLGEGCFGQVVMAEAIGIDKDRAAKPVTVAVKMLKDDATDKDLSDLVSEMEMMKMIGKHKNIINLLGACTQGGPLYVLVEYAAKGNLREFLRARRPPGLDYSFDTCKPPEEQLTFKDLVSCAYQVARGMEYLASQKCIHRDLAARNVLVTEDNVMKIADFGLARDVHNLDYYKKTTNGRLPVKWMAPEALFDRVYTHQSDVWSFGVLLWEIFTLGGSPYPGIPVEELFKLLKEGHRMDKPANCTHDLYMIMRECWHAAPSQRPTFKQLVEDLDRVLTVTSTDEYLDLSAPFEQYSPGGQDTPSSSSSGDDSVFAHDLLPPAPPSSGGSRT
T10 sequence (Q9BYT3 whole entry): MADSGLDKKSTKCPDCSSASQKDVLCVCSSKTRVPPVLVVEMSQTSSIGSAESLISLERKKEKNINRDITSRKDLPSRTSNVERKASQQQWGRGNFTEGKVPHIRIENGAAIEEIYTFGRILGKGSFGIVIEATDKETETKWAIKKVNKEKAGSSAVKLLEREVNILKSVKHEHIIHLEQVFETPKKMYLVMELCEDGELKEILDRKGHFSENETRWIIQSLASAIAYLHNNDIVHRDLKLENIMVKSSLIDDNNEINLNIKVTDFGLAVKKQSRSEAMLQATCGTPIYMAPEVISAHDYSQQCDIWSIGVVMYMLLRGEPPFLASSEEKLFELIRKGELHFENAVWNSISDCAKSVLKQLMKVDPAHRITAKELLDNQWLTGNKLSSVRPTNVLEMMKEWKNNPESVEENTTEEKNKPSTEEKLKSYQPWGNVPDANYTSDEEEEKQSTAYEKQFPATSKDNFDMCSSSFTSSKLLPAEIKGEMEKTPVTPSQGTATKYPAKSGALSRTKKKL
T3 sequence (P07333 20-972): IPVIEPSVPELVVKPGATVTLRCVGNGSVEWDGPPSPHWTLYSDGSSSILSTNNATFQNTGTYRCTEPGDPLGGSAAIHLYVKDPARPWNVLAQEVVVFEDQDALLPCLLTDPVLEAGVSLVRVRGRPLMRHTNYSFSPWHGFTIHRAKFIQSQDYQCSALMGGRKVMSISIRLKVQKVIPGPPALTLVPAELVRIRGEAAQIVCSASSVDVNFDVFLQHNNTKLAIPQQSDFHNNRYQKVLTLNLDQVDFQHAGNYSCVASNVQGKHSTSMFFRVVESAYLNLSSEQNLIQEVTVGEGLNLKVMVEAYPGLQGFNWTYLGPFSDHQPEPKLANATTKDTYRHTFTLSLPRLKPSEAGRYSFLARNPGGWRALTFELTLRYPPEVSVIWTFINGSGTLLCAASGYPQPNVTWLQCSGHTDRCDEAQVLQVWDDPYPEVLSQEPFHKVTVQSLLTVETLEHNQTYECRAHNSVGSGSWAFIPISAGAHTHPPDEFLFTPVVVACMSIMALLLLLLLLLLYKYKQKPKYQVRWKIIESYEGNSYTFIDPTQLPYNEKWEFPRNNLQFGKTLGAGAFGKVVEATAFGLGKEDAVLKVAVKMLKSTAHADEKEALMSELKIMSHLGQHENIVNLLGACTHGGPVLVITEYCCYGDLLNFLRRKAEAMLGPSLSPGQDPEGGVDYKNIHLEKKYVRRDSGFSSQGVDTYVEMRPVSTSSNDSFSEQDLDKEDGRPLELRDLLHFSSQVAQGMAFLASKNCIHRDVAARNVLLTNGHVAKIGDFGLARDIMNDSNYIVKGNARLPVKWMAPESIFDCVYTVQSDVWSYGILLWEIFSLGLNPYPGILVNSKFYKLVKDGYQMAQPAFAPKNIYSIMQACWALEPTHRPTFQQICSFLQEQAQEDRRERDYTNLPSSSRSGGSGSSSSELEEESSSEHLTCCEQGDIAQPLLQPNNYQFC
T7 sequence (Q15759 whole entry): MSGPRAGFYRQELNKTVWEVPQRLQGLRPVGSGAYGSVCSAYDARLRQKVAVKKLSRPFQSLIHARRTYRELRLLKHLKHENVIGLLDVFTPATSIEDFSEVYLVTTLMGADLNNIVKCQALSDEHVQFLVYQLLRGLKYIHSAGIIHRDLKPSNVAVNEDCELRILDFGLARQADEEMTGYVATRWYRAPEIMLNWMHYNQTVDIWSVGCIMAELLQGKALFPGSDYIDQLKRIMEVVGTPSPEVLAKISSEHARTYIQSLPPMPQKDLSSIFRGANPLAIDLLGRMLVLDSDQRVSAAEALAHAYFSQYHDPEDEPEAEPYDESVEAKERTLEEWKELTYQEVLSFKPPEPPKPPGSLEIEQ
T6 sequence (Q13882 whole entry): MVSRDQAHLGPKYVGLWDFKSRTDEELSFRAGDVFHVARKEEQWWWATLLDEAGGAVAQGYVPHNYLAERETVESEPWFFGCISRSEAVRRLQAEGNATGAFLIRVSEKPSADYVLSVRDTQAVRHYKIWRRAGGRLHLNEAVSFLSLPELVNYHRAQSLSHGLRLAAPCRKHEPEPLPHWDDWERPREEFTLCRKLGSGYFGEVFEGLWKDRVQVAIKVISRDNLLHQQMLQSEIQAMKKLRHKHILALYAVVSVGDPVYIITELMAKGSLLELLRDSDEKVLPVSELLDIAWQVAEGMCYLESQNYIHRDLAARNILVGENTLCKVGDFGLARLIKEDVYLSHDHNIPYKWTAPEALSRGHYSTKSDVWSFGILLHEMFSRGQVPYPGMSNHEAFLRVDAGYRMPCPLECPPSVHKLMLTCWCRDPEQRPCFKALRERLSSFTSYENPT

Regarding `CNc1nc(Nc2ccc(C(=O)N3CCC(N4CCOCC4)CC3)c3c2OCO3)nc2[nH]cc(Cl)c12` [Compound 75, (7-((5-chloro-4-(methylamino)-7H-pyrrolo[2,3-d]pyrimidin-2-yl)amino)benzo[d][1,3]dioxol-4-yl)(4-morpholinopiperidin-1-yl)methanone], the remaining binding at 1 µM on panel of 468 kinases [1] is 100%; at panel of 468 kinases [2] it was 39%; at panel of 468 kinases [3] (CSF1R-autoinhibited), 99%; at panel of 468 kinases [3] (CSF1R), 98%; on panel of 468 kinases [4], 98%; at panel of 468 kinases [5], 98%. For the same compound, the remaining binding at 1 µM on panel of 468 kinases [6] was determined as 99%; at panel of 468 kinases [7], 100%; on panel of 468 kinases [8] it was 42%; on panel of 468 kinases [9], 34%; on panel of 468 kinases [10] it was 7.2%.
Turning to `CNc1nc(Nc2ccc(P3(=O)CCN(C4CCOCC4)CC3)cc2OC)nc2[nH]cc(Cl)c12` [Compound 77, 4-(4-((5-chloro-4-(methylamino)-7H-pyrrolo[2,3-d]pyrimidin-2-yl)amino)-3-methoxyphenyl)-1-(tetrahydro-2H-pyran-4-yl)-1,4-azaphosphinane 4-oxide], the remaining binding at 1 µM at panel of 468 kinases [1] is 100%; on panel of 468 kinases [2], 51%; at panel of 468 kinases [3] (CSF1R-autoinhibited) it was 100%; at panel of 468 kinases [3] (CSF1R), 100%; on panel of 468 kinases [4] it was 100%; at panel of 468 kinases [5], 95%. Also, the remaining binding at 1 µM on panel of 468 kinases [6] was determined as 94%; on panel of 468 kinases [7], 100%; at panel of 468 kinases [8] it was 25%; at panel of 468 kinases [9], 100%; at panel of 468 kinases [10], 6.9%.
`CNc1nc(Nc2ccc(S(=O)(=O)N3CCC(N4CCOCC4)CC3)cc2OC)nc2[nH]cc(Cl)c12` [Compound 12, 5-chloro-N2-(2-methoxy-4-((4-morpholinopiperidin-1-yl)sulfonyl)phenyl)-N4-methyl-7H-pyrrolo[2,3-d]pyrimidine-2,4-diamine]: the remaining binding at 1 µM came to 100% on panel of 468 kinases [1]; 53% at panel of 468 kinases [2]; 100% at panel of 468 kinases [3] (CSF1R-autoinhibited); 100% at panel of 468 kinases [3] (CSF1R); 100% at panel of 468 kinases [4]; 86% on panel of 468 kinases [5]. The remaining binding at 1 µM at panel of 468 kinases [6] was found to be 100%; on panel of 468 kinases [7] it was 100%; at panel of 468 kinases [8], 68%; at panel of 468 kinases [9], 100%; at panel of 468 kinases [10], 10%.
